# From PMC7614683, “A small molecule PI3Kα activator for cardioprotection and neuroregeneration” (Nature, 2023)
# Assays:
# human p110β/p85α (PI3Kβ) = biological target: T1, human p110β/p85α (PI3Kβ) (Homo sapiens, UniProt P42338); assay: ADP-Glo in vitro lipid kinase assay, PI3Kβ; format: biochemical
# T1 construct: Full-length human p110β/p85α and p110δ/p85α were cloned and expressed in a similar manner; Strep-tag followed by TEV protease site (N, cleaved yes); host or cells: Spodoptera frugiperda Sf9, baculovirus
# T1 sequence (P42338 whole entry): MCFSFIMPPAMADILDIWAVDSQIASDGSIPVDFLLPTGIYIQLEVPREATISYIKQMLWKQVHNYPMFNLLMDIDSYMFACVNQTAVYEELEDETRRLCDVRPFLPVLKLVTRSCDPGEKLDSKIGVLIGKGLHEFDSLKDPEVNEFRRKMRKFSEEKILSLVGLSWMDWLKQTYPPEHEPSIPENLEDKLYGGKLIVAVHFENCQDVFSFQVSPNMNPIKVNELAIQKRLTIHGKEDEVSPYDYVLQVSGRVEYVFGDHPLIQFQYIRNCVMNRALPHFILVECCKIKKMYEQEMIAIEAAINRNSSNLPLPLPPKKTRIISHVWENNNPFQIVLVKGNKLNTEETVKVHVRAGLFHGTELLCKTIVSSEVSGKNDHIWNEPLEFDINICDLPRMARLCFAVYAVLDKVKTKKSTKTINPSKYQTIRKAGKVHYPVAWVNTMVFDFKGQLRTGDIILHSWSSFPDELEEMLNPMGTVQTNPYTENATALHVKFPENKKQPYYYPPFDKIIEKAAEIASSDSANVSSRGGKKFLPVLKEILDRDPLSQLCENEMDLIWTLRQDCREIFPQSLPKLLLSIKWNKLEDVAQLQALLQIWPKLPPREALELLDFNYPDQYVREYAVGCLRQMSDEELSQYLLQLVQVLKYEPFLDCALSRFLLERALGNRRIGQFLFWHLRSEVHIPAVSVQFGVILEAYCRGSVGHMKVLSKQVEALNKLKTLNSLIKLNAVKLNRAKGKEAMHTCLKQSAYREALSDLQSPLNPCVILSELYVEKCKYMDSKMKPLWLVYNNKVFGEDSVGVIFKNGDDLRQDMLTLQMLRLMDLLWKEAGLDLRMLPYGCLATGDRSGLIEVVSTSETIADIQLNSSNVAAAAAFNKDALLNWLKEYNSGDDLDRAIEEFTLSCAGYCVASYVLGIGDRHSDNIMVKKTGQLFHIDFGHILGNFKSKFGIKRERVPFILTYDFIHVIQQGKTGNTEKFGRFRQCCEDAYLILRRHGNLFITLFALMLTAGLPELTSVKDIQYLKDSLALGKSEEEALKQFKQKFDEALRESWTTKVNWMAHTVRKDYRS
# T1 sequence (P27986 whole entry partner): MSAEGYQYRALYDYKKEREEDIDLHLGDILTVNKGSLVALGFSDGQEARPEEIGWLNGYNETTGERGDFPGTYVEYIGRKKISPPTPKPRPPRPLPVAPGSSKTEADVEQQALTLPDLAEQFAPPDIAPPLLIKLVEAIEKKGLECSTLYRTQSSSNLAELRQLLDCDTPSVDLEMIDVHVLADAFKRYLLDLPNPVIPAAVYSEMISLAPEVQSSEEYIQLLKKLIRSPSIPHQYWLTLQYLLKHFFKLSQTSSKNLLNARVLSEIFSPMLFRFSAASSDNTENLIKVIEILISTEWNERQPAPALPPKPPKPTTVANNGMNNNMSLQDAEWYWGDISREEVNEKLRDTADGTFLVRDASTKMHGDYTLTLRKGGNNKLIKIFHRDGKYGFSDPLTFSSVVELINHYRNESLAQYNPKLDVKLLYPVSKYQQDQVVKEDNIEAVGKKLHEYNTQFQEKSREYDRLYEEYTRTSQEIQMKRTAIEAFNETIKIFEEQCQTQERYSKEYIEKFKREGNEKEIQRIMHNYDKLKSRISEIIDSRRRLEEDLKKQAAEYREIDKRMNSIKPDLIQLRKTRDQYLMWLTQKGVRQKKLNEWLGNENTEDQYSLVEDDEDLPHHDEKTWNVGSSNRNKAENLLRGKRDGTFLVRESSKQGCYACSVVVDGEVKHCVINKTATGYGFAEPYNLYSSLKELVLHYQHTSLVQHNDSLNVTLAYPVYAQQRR
# Method: Full-length human p110β/p85α and p110δ/p85α were cloned and expressed in a similar manner. Briefly, 5 litres of Spodoptera frugiperda (Sf9) cell culture at a density of 1.0 x 10^6 cells/ml were co-infected with both a p85α-encoding virus and a virus encoding p110β/δ with an N-terminal Strep-tag followed by a tobacco etch virus (TEV) protease site (plasmid OP832 for p110β, plasmid OP833 for p110δ and plasmid of OP809 for p85α). After a 48 h infection at 27°C, cells were harvested and washed with PBS. Cell pellets were then resuspended in Lysis Buffer (20 mM Tris pH 8.0, 150 mM NaCl, 5% glycerol, 2 mM β-mercaptoethanol, 1 EDTA-free protease inhibitor tablet (Roche) per 50 ml of buffer) and sonicated ar 4°C for 7 min in 15 sec intervals followed by a 15 sec wait. […]
# For re-screening of HTS hits and routine compound profiling, the reaction mixture contained 2 μl PI3K enzyme, 2 μl compound and/or pY and 2 μl of liposome substrate mixed with ATP. […] Luminescence was read using a Sense (Hidex) plate reader. […]
# For characterisation of the effects of 1938 on in vitro PI3K enzymology, all reactions were performed at room temperature with 384 white-polystyrene plates (Corning #3574). […] Data was expressed as velocity (nmol of ADP generated/nmol of enzyme/sec). […] Luminescence was read using a PHERAstar® plate reader with software version 5.41, and analyses were performed using GraphPad Prism 8/9.
# PI3Kα H1047R mutant = PI3Kα H1047R mutant (Homo sapiens, UniProt P42336, H1047R); assay: ADP-Glo catalytic activity, oncogenic mutant H1047R; format: biochemical
# Chain of PI3Kα H1047R mutant (P42336 whole entry H1047R): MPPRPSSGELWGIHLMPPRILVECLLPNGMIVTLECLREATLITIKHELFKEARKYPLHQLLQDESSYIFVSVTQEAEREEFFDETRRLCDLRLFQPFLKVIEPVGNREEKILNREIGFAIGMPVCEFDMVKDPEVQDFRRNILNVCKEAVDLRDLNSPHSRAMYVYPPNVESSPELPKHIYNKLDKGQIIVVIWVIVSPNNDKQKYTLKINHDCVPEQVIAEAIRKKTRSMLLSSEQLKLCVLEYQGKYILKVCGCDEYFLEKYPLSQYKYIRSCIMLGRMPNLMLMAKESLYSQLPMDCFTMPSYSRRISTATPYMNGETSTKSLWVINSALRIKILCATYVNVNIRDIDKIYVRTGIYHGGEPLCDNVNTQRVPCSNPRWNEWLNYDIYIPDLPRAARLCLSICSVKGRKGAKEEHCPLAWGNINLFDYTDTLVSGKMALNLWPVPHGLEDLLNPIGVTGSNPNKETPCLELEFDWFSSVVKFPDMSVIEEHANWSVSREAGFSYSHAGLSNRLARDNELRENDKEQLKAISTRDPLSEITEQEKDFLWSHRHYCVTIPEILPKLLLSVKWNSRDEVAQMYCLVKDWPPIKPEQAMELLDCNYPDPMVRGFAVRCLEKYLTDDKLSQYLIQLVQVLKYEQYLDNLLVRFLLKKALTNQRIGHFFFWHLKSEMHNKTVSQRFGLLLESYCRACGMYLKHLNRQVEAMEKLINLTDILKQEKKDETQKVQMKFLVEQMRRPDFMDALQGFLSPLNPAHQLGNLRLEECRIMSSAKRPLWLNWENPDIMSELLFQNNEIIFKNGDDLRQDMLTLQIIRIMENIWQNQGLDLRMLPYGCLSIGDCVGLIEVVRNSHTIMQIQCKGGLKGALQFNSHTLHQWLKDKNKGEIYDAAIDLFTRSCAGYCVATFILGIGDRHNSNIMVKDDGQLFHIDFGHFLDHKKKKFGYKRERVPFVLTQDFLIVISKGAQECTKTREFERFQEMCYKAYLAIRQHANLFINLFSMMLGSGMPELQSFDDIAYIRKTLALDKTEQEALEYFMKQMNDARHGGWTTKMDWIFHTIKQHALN
# Chain of PI3Kα H1047R mutant (P27986 whole entry partner): as the sequence (P27986 whole entry partner) above
# Method: For characterisation of the effects of 1938 on in vitro PI3K enzymology, all reactions were performed at room temperature with 384 white-polystyrene plates (Corning #3574). The final DMSO concentration in the assay was between 0.5%-1.8%. The reaction mixture contained 2 μl PI3K enzyme, 2 μl compound and/or pY and 2 μl of liposome substrate mixed with ATP. ATP was used at a final concentration of 200 μM, unless otherwise stated. The enzyme and compounds were pre-incubated for 10 min prior to addition of substrate. The reaction was allowed to proceed for up to 45 min at room temperature, before addition of 6 μl of ADP-Glo R1 to terminate the reaction. The plate was incubated for 60 min, followed by addition of 12 μl of ADP-Glo R2 and incubated further for 60 min in the dark. Data was expressed as velocity (nmol of ADP generated/nmol of enzyme/sec). ADP-ATP standard curves were performed according to the manufacturer’s instructions. Luminescence was read using a PHERAstar® plate reader with software version 5.41, and analyses were performed using GraphPad Prism 8/9.
smiles,measurement,setting,value
CCN1CCN(c2ccc(Nc3cc(Nc4cccc5c4N(C(C)=O)CC5)ccn3)cc2)CC1 [Compound 1938],activation of PI3Kβ,human p110β/p85α (PI3Kβ),but not PI3Kβ or PI3Kδ
same,activation of H1047R mutant,PI3Kα H1047R mutant,levels comparable with stimulation with pY
